Read-outs that look alike come from different tables or passages of the source.
Test system: peripheral blood mononuclear cells (PBMC) stimulated with allogeneic PBMC or EBV-transformed human B cells (RPMI1788)
Test: Mixed lymphocyte reaction (MLR) assay
Type: cell-based
Procedure, shortened: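 Compounds, held as 10 mM DMSO stocks and diluted in culture medium, were added to PBMC stimulated by 30 Gy-irradiated allogeneic PBMC or RPMI1788 cells. Proliferation was read as [3H]-thymidine uptake (1 μCi, final 16 h) after 5 days at 37° C. Inhibition was derived from cpm.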

[1] = Homo sapiens, RPMI-1788, MLR assay of example 319, read-out: MLR IC50
[2] = Homo sapiens, RPMI-1788, 50% suppression of the MLR, [3H]-thymidine incorporation, read-out: MLR
[3] = 50% suppression of the MLR, [3H]-thymidine incorporation, read-out: MLR

Cc1cccc(NC(=O)N2CCN(c3nc(N)nc4ccc(-c5ccncc5)nc34)CC2)c1 [Example 542, 2-amino-4-[(3-methylphenylcarbamoyl)-piperazin-1-yl]-6-(4-pyridyl)-pyrido[3,2-d]pyrimidine]
IC50 [1]: 5 nM

Nc1nc(N2CCOCC2)c2nc(-c3ccc(F)c(Cl)c3)ccc2n1 [Example 242, 2-amino-4-morpholino-6-(3-chloro-4-fluorophenyl)-pyrido[3,2-d]pyrimidine]
IC50 [2]: 2600 nM

Nc1nc(N2CCN(C(=O)NC34CC5CC(CC(C5)C3)C4)CC2)c2nc(-c3ccc(F)cc3)ccc2n1 [Example 453, 2-amino-4-{4-[N-(1-adamantylcarbamoyl)]-piperazin-1-yl}-6-(4-fluorophenyl)-pyrido[3,2-d]pyrimidine]
IC50 [1]: 4000 nM

CCCCOc1nc(N2CCN(C(=O)Nc3cccc(C)c3)CC2)c2nc(-c3ccc(OC)c(OC)c3)ccc2n1 [Example 89, 2-butoxy-4-[(N-3-methyl-phenylcarbamoyl)-piperazin-1-yl]-6-(3,4-dimethoxyphenyl)-pyrido[3,2-d]pyrimidine]
IC50 [3]: 2000 nM

CCNC(=O)N1CCN(c2nc(N)nc3ccc(-c4ccc(F)cc4)nc23)CC1 [Example 450, 2-amino-4-[4-(N-ethylcarbamoyl)-piperazin-1-yl]-6-(4-fluorophenyl)-pyrido[3,2-c]pyrimidine]
IC50 [1]: 500 nM

Nc1nc(N2CCN(CCOc3ccccc3)CC2)c2nc(-c3ccc(F)cc3)ccc2n1 [Example 205]
IC50 [3]: 5500 nM

Nc1nc(N2CCN(C(=O)COc3ccc(Cl)cc3)CC2)c2nc(-c3ccc4c(c3)CCO4)ccc2n1 [Example 497, 2-amino-4-[N-(4-chlorophenoxyacetyl)-piperazin-1-yl]-6-(2,3-dihydro-1-benzofuran-5-yl)-pyrido(3,2-d)pyrimidine]
IC50 [1]: 210 nM

Nc1nc(N2CCN(C(=O)COc3ccc(Cl)cc3)CC2)c2nc(-c3ccc(OC(F)(F)F)cc3)ccc2n1 [Example 439, 2-amino-4-[4-(4-chlorophenoxyacetyl)piperazin-1-yl]-6-(4-trifluoromethoxyphenyl)-pyrido-[3,2-d]pyrimidine]
IC50 [1]: 300 nM

Nc1nc(N2CCN(C(=O)COc3ccc(Cl)cc3)CC2)c2nc(-c3cccc(F)c3)ccc2n1 [Example 401, 2-amino-4-[4-(4-chlorophenoxyacetyl)piperazin-1-yl]-6-(3-fluorophenyl)pyrido-[3,2-d]pyrimidine]
IC50 [1]: 300 nM

COc1ccc(-c2ccc3nc(N)nc(N4CCN(C(=O)COc5ccc(Cl)cc5)CC4)c3n2)cc1C [Example 509, 2-amino-4-[N-(4-chlorophenoxyacetyl)-piperazin-1-yl]-6-(3-methyl-4-methoxyphenyl)-pyrido(3,2-d)pyrimidine]
IC50 [1]: 31 nM

Nc1nc(N2CCN(C(=O)COc3ccc(Cl)cc3)CC2)c2nc(-c3ccc(Cl)cc3)ccc2n1 [Example 405, 2-amino-4-[4-(4-chlorophenoxyacetyl)piperazin-1-yl]-6-(4-chlorophenyl)pyrido-[3,2-d]pyrimidine]
IC50 [1]: 50 nM

Cc1cccc(NC(=O)N2CCN(c3nc(N)nc4ccc(Cl)nc34)CC2)c1 [Example 541, 2-amino-4-[(3-methylphenylcarbamoyl)-piperazin-1-yl]-6-chloro-pyrido[3,2-d]pyrimidine]
IC50 [1]: 60 nM

Cc1cccc(NC(=O)N2CCN(c3ncnc4ccc(-c5ccc(F)cc5F)nc34)CC2)c1 [Example 556, 4-[(3-methylphenylcarbamoyl)-piperazin-1-yl]-6-(2,4-difluorophenyl)pyrido[3,2-d]pyrimidine]
IC50 [1]: 100 nM

Nc1nc(N2CCN(C(=O)CO)CC2)c2nc(-c3ccc(F)cc3)ccc2n1 [Example 437, 2-amino-4-[4-(2-hydroxyacetyl)piperazin-1-yl]-6-(4-fluorophenyl)-pyrido[3,2-d]pyrimidine]
IC50 [1]: 1600 nM

Nc1nc(N2CCN(C(=O)COc3ccc(Cl)cc3)CC2)c2nc(-c3ccc(O)cc3)ccc2n1 [Example 415, 2-amino-4-[4-(4-chlorophenoxyacetyl)piperazin-1-yl]-6-(4-hydroxyphenyl)pyrido-[3,2-d]pyrimidine]
IC50 [1]: 6 nM

Nc1nc(N2CCN(C(=O)COc3ccc(Cl)cc3)CC2)c2nc(-c3c(F)cccc3F)ccc2n1 [Example 428, 2-amino-4-[4-(4-chlorophenoxyacetyl)piperazin-1-yl]-6-(2,6-difluorophenyl)pyrido-[3,2-d]pyrimidine]
IC50 [1]: 300 nM

Cc1csc(-c2ccc3nc(N)nc(N4CCN(C(=O)COc5ccc(Cl)cc5)CC4)c3n2)c1 [Example 511, 2-amino-4-[N-(4-chlorophenoxyacetyl)-piperazin-1-yl]-6-(4-methyl-2-thienyl)-pyrido(3,2-d)pyrimidine]
IC50 [1]: 54 nM

COCC(=O)N1CCN(c2nc(N)nc3ccc(-c4ccc(F)cc4)nc23)CC1 [Example 462, 2-amino-4-[4-(methoxyacetyl)piperazin-1-yl]-6-(4-fluorophenyl)-pyrido[3,2-d]pyrimidine]
IC50 [1]: 400 nM

CN(C)C(=O)N1CCN(c2nc(N)nc3ccc(-c4ccc(F)cc4)nc23)CC1 [Example 464, 2-amino-4-[4-(dimethylcarbamoyl)piperazin-1-yl]-6-(4-fluorophenyl)-pyrido[3,2-d]pyrimidine]
IC50 [1]: 800 nM

Nc1nc(N2CCOCC2)c2nc(Cl)ccc2n1 [Example 230, 2-amino-6-chloro-4-morpholino-pyrido[3,2-d]pyrimidine]
IC50 [2]: > 10000 nM

Cc1cccc(NC(=O)N2CCN(c3nc(-c4ccccc4)nc4ccc(-c5ccc(F)cc5)nc34)CC2)c1 [Example 533, 2-phenyl-4-[N-(3-methylphenylcarbamoyl)piperazin-1-yl]-6-(4-fluorophenyl)-pyrido[3,2-d]pyrimidine]
IC50 [1]: 2600 nM

Nc1nc(N2CCN(C(=O)COc3ccc(Cl)cc3)CC2)c2nc(-c3ccc(F)c(F)c3)ccc2n1 [Example 404, 2-amino-4-[4-(4-chlorophenoxyacetyl)piperazin-1-yl]-6-(3,4-difluorophenyl)pyrido-[3,2-d]pyrimidine]
IC50 [1]: 40 nM

Cc1cccc(NC(=O)N2CCN(c3nc(N)nc4ccc(-c5ccccc5C#N)nc34)CC2)c1 [Example 546, 2-amino-4-[(3-methylphenylcarbamoyl)-piperazin-1-yl]-6-(2-cyano-phenyl)-pyrido[3,2-d]pyrimidine]
IC50 [1]: 4 nM

CC(C)(C)OC(=O)N[C@H]1CCN(c2nc(N)nc3ccc(-c4ccc(F)cc4)nc23)C1 [Example 576, 2-amino-4-[(S)-3-Boc-amino-pyrrolidin-1-yl]-6-(4-fluorophenyl)-pyrido(3,2-d)pyrimidine]
IC50 [1]: 4200 nM

O=C(COc1ccc(Cl)cc1)N1CCN(c2nc(NC3CCCC3)nc3ccc(-c4ccc(F)cc4)nc23)CC1 [Example 573, 2-cyclopentylamino-6-(4-fluorophenyl)-4-[N-(4-chlorophenoxyacetyl)-piperazin-1-yl]-pyrido[3,2-d]pyrimidine]
IC50 [1]: 8000 nM

CC(C)C(C(=O)N1CCN(c2nc(N)nc3ccc(-c4ccc(F)cc4)nc23)CC1)c1ccc(Cl)cc1 (stereo not drawn) [Example 467, 2-amino-4-{4-[2-(4-chlorophenyl)-3-methylbutyryl]-piperazin-1-yl}-6-(4-fluorophenyl)-pyrido[3,2-d]pyrimidine]
IC50 [1]: 4700 nM

Cc1cccc(NC(=O)N2CCN(c3nc(CNC4CC4)nc4ccc(-c5ccc(F)cc5)nc34)CC2)c1 [Example 539, 2-(N-cyclopropylamino)methyl-4-[N-(3-methylphenylcarbamoyl)piperazin-1-yl]-6-(4-fluorophenyl)-pyrido[3,2-d]pyrimidine]
IC50 [1]: 700 nM

Cc1cccc(NC(=O)N2CCN(c3ncnc4ccc(-c5cccs5)nc34)CC2)c1 [Example 562, 4-[(3-methylphenylcarbamoyl)-piperazin-1-yl]-6-(2-thienyl)pyrido[3,2-d]pyrimidine]
IC50 [1]: 53 nM

COc1ccc(-c2ccc3nc(N)nc(N4CCN(C(=O)CNC(=O)OC(C)(C)C)CC4)c3n2)cc1OC [Example 396, 2-amino-4-{4-[N-(tert-butoxycarbonyl)-glycyl]-piperazin-1-yl}-6-(3,4-di-methoxyphenyl)-pyrido[3,2-d]pyrimidine]
IC50 [1]: 50 nM

Cc1cccc(NC(=O)N2CCN(c3ncnc4ccc(-c5ccc(C#N)cc5)nc34)CC2)c1 [Example 553, 4-[(3-methylphenylcarbamoyl)-piperazin-1-yl]-6-(4-cyanophenyl) Pyrido[3,2-d]pyrimidine]
IC50 [1]: 60 nM

Cc1cccc(NC(=O)N2CCN(c3nc(N)nc4ccc(-c5ccccc5F)nc34)CC2)c1 [Example 547, 2-amino-4-[(3-methylphenylcarbamoyl)-piperazin-1-yl]-6-(2-fluoro-phenyl)-pyrido[3,2-d]pyrimidine]
IC50 [1]: 60 nM

Cc1cccc(NC(=O)N[C@H]2CCN(c3nc(N)nc4ccc(-c5ccc(F)cc5)nc34)C2)c1 [Example 578]
IC50 [1]: > 10000 nM

Nc1nc(N2CCN(C(=O)CNC(=O)c3ccc(Cl)cc3)CC2)c2nc(-c3ccc(F)cc3)ccc2n1 [Example 476, N-(2-{4-[2-amino-6-(4-fluorophenyl)-pyrido[3,2-d]pyrimidin-4-yl]-piperazin-1-yl}-2-oxoethyl)-4-chlorobenzamide]
IC50 [1]: 60 nM

COc1cc(-c2ccc3nc(N)nc(N4CCN(C(=O)COc5ccc(Cl)cc5)CC4)c3n2)ccc1N [Example 514, 2-amino-4-[N-(4-chlorophenoxyacetyl)-piperazin-1-yl]-6-(3-methoxy-4-amino-phenyl)-pyrido(3,2-d)pyrimidine]
IC50 [1]: 71 nM

COc1ccc(-c2ccc3nc(N)nc(N4CCN(C(=O)COc5ccc(Cl)cc5)CC4)c3n2)cc1 [Example 426, 2-amino-4-[4-(4-chlorophenoxyacetyl)piperazin-1-yl]-6-(4-methoxyphenyl)pyrido-[3,2-d]pyrimidine]
IC50 [1]: 30 nM

CC(C)N(C(=O)N1CCN(c2nc(N)nc3ccc(-c4ccc(F)cc4)nc23)CC1)C(C)C [Example 465, 2-amino-4-[4-(diisopropylcarbamoyl)piperazin-1-yl]-6-(4-fluorophenyl)-pyrido[3,2-d]pyrimidine]
IC50 [1]: 3000 nM

From patent publication US20090264415A2 (priority 2004, published 2009)
